Reference: ChEMBL document CHEMBL3596184, “Prostate tumor specific peptide-peptoid hybrid prodrugs” (2015)
Numbered stars: 1 amine (or outer) side, 2 acyl side, 3 side chain; on linkers, the order of the positions; unused ones are H or OH. Square brackets hold non-standard residues; d marks the D form. Peptide text beside a SMILES is read from it. γGlu = O=C(O)[C@H](CCC(=O)[*:2])N[*:1]; Hyp = O=C(O)[C@@H]1C[C@@H](O)CN1; Nspe = C[C@H](NCC(=O)O)c1ccccc1; Chg = N[C@H](C(=O)O)C1CCCCC1; Nlys = NCCCCNCC(=O)O

Legend:
Assay type in all cases: functional
[1] = test system: PC-3; experiment: Cytotoxicity against human PC3 cells assessed as induction of cell death after 48 hrs by MTS assay; details: PC-3, 48 h, read-out: LC50 (the source's name)
[2] = test system: LNCaP; experiment: Selectivity ratio of LC50 for human PC3 cells to LC50 for human LNCaP cells
[3] = test system: LNCaP; experiment: Cytotoxicity against human LNCAP cells assessed as induction of cell death after 48 hrs by MTS assay; details: read-out: LC50 (the source's name)

C[C@@H](c1ccccc1)N(CC(N)=O)C(=O)CN(C(=O)CN(CCCCN)C(=O)CN(C(=O)CN(C(=O)CN(CCCCN)C(=O)CN(C(=O)CN(C(=O)CN(CCCCN)C(=O)CN(C(=O)CN(C(=O)CN(CCCCN)C(=O)CC[C@H](N)C(=O)O)[C@@H](C)c1ccccc1)[C@@H](C)c1ccccc1)[C@@H](C)c1ccccc1)[C@@H](C)c1ccccc1)[C@@H](C)c1ccccc1)[C@@H](C)c1ccccc1)[C@@H](C)c1ccccc1 was tested, and the CC50 [1] was 12 µM, the RatioLC50 [2] was 1.3 and the CC50 [3] was 9.5 µM.

With CC(=O)N[C@@H](CCC(=O)N[C@@H](CCC(=O)N[C@@H](Cc1cnc[nH]1)C(=O)N[C@@H](CO)C(=O)N[C@@H](CO)C(=O)N[C@@H](CCCCN)C(=O)N[C@@H](CC(C)C)C(=O)N[C@@H](CCC(N)=O)C(=O)N(CCCCN)CC(=O)N(CC(=O)N(CC(=O)N(CCCCN)CC(=O)N(CC(=O)N(CC(=O)N(CCCCN)CC(=O)N(CC(=O)N(CC(=O)N(CCCCN)CC(=O)N(CC(=O)N(CC(N)=O)[C@@H](C)c1ccccc1)[C@@H](C)c1ccccc1)[C@@H](C)c1ccccc1)[C@@H](C)c1ccccc1)[C@@H](C)c1ccccc1)[C@@H](C)c1ccccc1)[C@@H](C)c1ccccc1)[C@@H](C)c1ccccc1)C(=O)O)C(=O)O (Ac-[γGlu][γGlu]HSSKLQ[Nlys][Nspe][Nspe][Nlys][Nspe][Nspe][Nlys][Nspe][Nspe][Nlys][Nspe][Nspe]-NH2) the CC50 [1] was 28 µM, the RatioLC50 [2] was 1.6 and the CC50 [3] was 18 µM.

Work on CC(=O)N[C@@H](CCC(=O)N[C@@H](CCC(=O)N[C@@H](CCC(=O)N[C@@H](Cc1cnc[nH]1)C(=O)N[C@@H](CO)C(=O)N[C@@H](CO)C(=O)N[C@@H](CCCCN)C(=O)N[C@@H](CC(C)C)C(=O)N[C@@H](CCC(N)=O)C(=O)N(CCCCN)CC(=O)N(CC(=O)N(CC(=O)N(CCCCN)CC(=O)N(CC(=O)N(CC(=O)N(CCCCN)CC(=O)N(CC(=O)N(CC(=O)N(CCCCN)CC(=O)N(CC(=O)N(CC(N)=O)[C@@H](C)c1ccccc1)[C@@H](C)c1ccccc1)[C@@H](C)c1ccccc1)[C@@H](C)c1ccccc1)[C@@H](C)c1ccccc1)[C@@H](C)c1ccccc1)[C@@H](C)c1ccccc1)[C@@H](C)c1ccccc1)C(=O)O)C(=O)O)C(=O)O (Ac-[γGlu][γGlu][γGlu]HSSKLQ[Nlys][Nspe][Nspe][Nlys][Nspe][Nspe][Nlys][Nspe][Nspe][Nlys][Nspe][Nspe]-NH2) yielded a CC50 [1] of 37 µM, a RatioLC50 [2] of 1.2 and a CC50 [3] of 31 µM.

In the case of CC(=O)N[C@@H](CCC(=O)N[C@@H](CCC(=O)N[C@@H](CCC(=O)N[C@@H](CCC(=O)N[C@@H](Cc1cnc[nH]1)C(=O)N[C@@H](CO)C(=O)N[C@@H](CO)C(=O)N[C@@H](CCCCN)C(=O)N[C@@H](CC(C)C)C(=O)N[C@@H](CCC(N)=O)C(=O)N(CCCCN)CC(=O)N(CC(=O)N(CC(=O)N(CCCCN)CC(=O)N(CC(=O)N(CC(=O)N(CCCCN)CC(=O)N(CC(=O)N(CC(=O)N(CCCCN)CC(=O)N(CC(=O)N(CC(N)=O)[C@@H](C)c1ccccc1)[C@@H](C)c1ccccc1)[C@@H](C)c1ccccc1)[C@@H](C)c1ccccc1)[C@@H](C)c1ccccc1)[C@@H](C)c1ccccc1)[C@@H](C)c1ccccc1)[C@@H](C)c1ccccc1)C(=O)O)C(=O)O)C(=O)O)C(=O)O (Ac-[γGlu][γGlu][γGlu][γGlu]HSSKLQ[Nlys][Nspe][Nspe][Nlys][Nspe][Nspe][Nlys][Nspe][Nspe][Nlys][Nspe][Nspe]-NH2), the CC50 [1] was 47 µM, the RatioLC50 [2] was 1.3 and the CC50 [3] was 35 µM.

CC(C)C[C@H](NC(=O)[C@H](CCCCN)NC(=O)[C@H](CO)NC(=O)[C@H](CO)NC(=O)[C@@H](N)Cc1cnc[nH]1)C(=O)N[C@@H](CCC(N)=O)C(=O)N(CCCCN)CC(=O)N(CC(=O)N(CC(=O)N(CCCCN)CC(=O)N(CC(=O)N(CC(=O)N(CCCCN)CC(=O)N(CC(=O)N(CC(=O)N(CCCCN)CC(=O)N(CC(=O)N(CC(N)=O)[C@@H](C)c1ccccc1)[C@@H](C)c1ccccc1)[C@@H](C)c1ccccc1)[C@@H](C)c1ccccc1)[C@@H](C)c1ccccc1)[C@@H](C)c1ccccc1)[C@@H](C)c1ccccc1)[C@@H](C)c1ccccc1 (H-HSSKLQ[Nlys][Nspe][Nspe][Nlys][Nspe][Nspe][Nlys][Nspe][Nspe][Nlys][Nspe][Nspe]-NH2) showed a CC50 [1] of 19.6 µM, a RatioLC50 [2] of 2.1 and a CC50 [3] of 9.2 µM.

C[C@@H](c1ccccc1)N(CC(N)=O)C(=O)CN(C(=O)CN(CCCCN)C(=O)CN(C(=O)CN(C(=O)CN(CCCCN)C(=O)CN(C(=O)CN(C(=O)CN(CCCCN)C(=O)CN(C(=O)CN(C(=O)CN(CCCCN)C(=O)[C@@H]1CCCN1C(=O)[C@H](CO)NC(=O)[C@H](CO)NC(=O)[C@H](CCC(N)=O)NC(=O)[C@@H](NC(=O)[C@H](CO)NC(=O)[C@H](CO)NC(=O)[C@@H]1C[C@@H](O)CN1)C1CCCCC1)[C@@H](C)c1ccccc1)[C@@H](C)c1ccccc1)[C@@H](C)c1ccccc1)[C@@H](C)c1ccccc1)[C@@H](C)c1ccccc1)[C@@H](C)c1ccccc1)[C@@H](C)c1ccccc1 (H-[Hyp]SS[Chg]QSSP[Nlys][Nspe][Nspe][Nlys][Nspe][Nspe][Nlys][Nspe][Nspe][Nlys][Nspe][Nspe]-NH2) gave a CC50 [1] of 35 µM, a RatioLC50 [2] of 2.1 and a CC50 [3] of 17 µM.

CC(C)C[C@H](NC(=O)[C@H](CCCCN)NC(=O)[C@H](CO)NC(=O)[C@H](CO)NC(=O)[C@H](Cc1cnc[nH]1)NC(=O)CNCCCCN)C(=O)N[C@@H](CCC(N)=O)C(=O)N(CC(=O)N(CC(=O)N(CCCCN)CC(=O)N(CC(=O)N(CC(=O)N(CCCCN)CC(=O)N(CC(=O)N(CC(=O)N(CCCCN)CC(=O)N(CC(=O)N(CC(N)=O)[C@@H](C)c1ccccc1)[C@@H](C)c1ccccc1)[C@@H](C)c1ccccc1)[C@@H](C)c1ccccc1)[C@@H](C)c1ccccc1)[C@@H](C)c1ccccc1)[C@@H](C)c1ccccc1)[C@@H](C)c1ccccc1 (H-[Nlys]HSSKLQ[Nspe][Nspe][Nlys][Nspe][Nspe][Nlys][Nspe][Nspe][Nlys][Nspe][Nspe]-NH2) gave a CC50 [1] of 16.9 µM, a RatioLC50 [2] of 3 and a CC50 [3] of 5.7 µM.

CC(C)C[C@H](NC(=O)[C@H](CCCCN)NC(=O)[C@H](CO)NC(=O)[C@H](CO)NC(=O)[C@H](Cc1cnc[nH]1)NC(=O)CN(CCCCN)C(=O)CN(C(=O)CN(C(=O)CNCCCCN)[C@@H](C)c1ccccc1)[C@@H](C)c1ccccc1)C(=O)N[C@@H](CCC(N)=O)C(=O)N(CC(=O)N(CC(=O)N(CCCCN)CC(=O)N(CC(=O)N(CC(=O)N(CCCCN)CC(=O)N(CC(=O)N(CC(=O)N(CCCCN)CC(N)=O)[C@@H](C)c1ccccc1)[C@@H](C)c1ccccc1)[C@@H](C)c1ccccc1)[C@@H](C)c1ccccc1)[C@@H](C)c1ccccc1)[C@@H](C)c1ccccc1 (H-[Nlys][Nspe][Nspe][Nlys]HSSKLQ[Nspe][Nspe][Nlys][Nspe][Nspe][Nlys][Nspe][Nspe][Nlys]-NH2) was tested, and the CC50 [1] was 19.1 µM, the RatioLC50 [2] was 3.2 and the CC50 [3] was 5.9 µM.

With C[C@@H](c1ccccc1)N(CC(N)=O)C(=O)CN(C(=O)CN(CCCCN)C(=O)CN(C(=O)CN(C(=O)CN(CCCCN)C(=O)CN(C(=O)CN(C(=O)CN(CCCCN)C(=O)CN(C(=O)CN(C(=O)CNCCCCN)[C@@H](C)c1ccccc1)[C@@H](C)c1ccccc1)[C@@H](C)c1ccccc1)[C@@H](C)c1ccccc1)[C@@H](C)c1ccccc1)[C@@H](C)c1ccccc1)[C@@H](C)c1ccccc1 (H-[Nlys][Nspe][Nspe][Nlys][Nspe][Nspe][Nlys][Nspe][Nspe][Nlys][Nspe][Nspe]-NH2) the CC50 [1] was 8.5 µM, the RatioLC50 [2] was 1.7 and the CC50 [3] was 5 µM.

With CC(C)C[C@H](NC(=O)[C@H](CCCCN)NC(=O)[C@H](CO)NC(=O)[C@H](CO)NC(=O)[C@H](Cc1cnc[nH]1)NC(=O)CC[C@H](NC(=O)CC[C@H](NC(=O)CC[C@H](NC(=O)CC[C@H](N)C(=O)O)C(=O)O)C(=O)O)C(=O)O)C(=O)N[C@@H](CCC(N)=O)C(=O)N(CCCCN)CC(=O)N(CC(=O)N(CC(=O)N(CCCCN)CC(=O)N(CC(=O)N(CC(=O)N(CCCCN)CC(=O)N(CC(=O)N(CC(=O)N(CCCCN)CC(=O)N(CC(=O)N(CC(N)=O)[C@@H](C)c1ccccc1)[C@@H](C)c1ccccc1)[C@@H](C)c1ccccc1)[C@@H](C)c1ccccc1)[C@@H](C)c1ccccc1)[C@@H](C)c1ccccc1)[C@@H](C)c1ccccc1)[C@@H](C)c1ccccc1 ({γGlu-γGlu-γGlu-γGlu}-HSSKLQ[Nlys][Nspe][Nspe][Nlys][Nspe][Nspe][Nlys][Nspe][Nspe][Nlys][Nspe][Nspe]-NH2) the CC50 [1] was 36 µM, the RatioLC50 [2] was 2.1 and the CC50 [3] was 17 µM.

For CC(C)C[C@H](NC(=O)[C@H](CCCCN)NC(=O)[C@H](CO)NC(=O)[C@H](CO)NC(=O)[C@H](Cc1cnc[nH]1)NC(=O)CC[C@H](NC(=O)CC[C@H](NC(=O)CC[C@H](N)C(=O)O)C(=O)O)C(=O)O)C(=O)N[C@@H](CCC(N)=O)C(=O)N(CCCCN)CC(=O)N(CC(=O)N(CC(=O)N(CCCCN)CC(=O)N(CC(=O)N(CC(=O)N(CCCCN)CC(=O)N(CC(=O)N(CC(=O)N(CCCCN)CC(=O)N(CC(=O)N(CC(N)=O)[C@@H](C)c1ccccc1)[C@@H](C)c1ccccc1)[C@@H](C)c1ccccc1)[C@@H](C)c1ccccc1)[C@@H](C)c1ccccc1)[C@@H](C)c1ccccc1)[C@@H](C)c1ccccc1)[C@@H](C)c1ccccc1 ({γGlu-γGlu-γGlu}-HSSKLQ[Nlys][Nspe][Nspe][Nlys][Nspe][Nspe][Nlys][Nspe][Nspe][Nlys][Nspe][Nspe]-NH2), the CC50 [1] was 34 µM, the RatioLC50 [2] was 2 and the CC50 [3] was 17 µM.

C[C@@H](c1ccccc1)N(CC(N)=O)C(=O)CN(C(=O)CN(CCCCN)C(=O)CN(C(=O)CN(C(=O)CN(CCCCN)C(=O)CN(C(=O)CN(C(=O)CN(CCCCN)C(=O)CN(C(=O)CN(C(=O)CN(CCCCN)C(=O)CC[C@H](NC(=O)CC[C@H](NC(=O)CC[C@H](N)C(=O)O)C(=O)O)C(=O)O)[C@@H](C)c1ccccc1)[C@@H](C)c1ccccc1)[C@@H](C)c1ccccc1)[C@@H](C)c1ccccc1)[C@@H](C)c1ccccc1)[C@@H](C)c1ccccc1)[C@@H](C)c1ccccc1 ({γGlu-γGlu-γGlu}-[Nlys][Nspe][Nspe][Nlys][Nspe][Nspe][Nlys][Nspe][Nspe][Nlys][Nspe][Nspe]-NH2) showed a CC50 [1] of 17 µM, a RatioLC50 [2] of 1.1 and a CC50 [3] of 15 µM.
